Measurements reported in US9901592B2 (priority 2008, dated 2018).
≈ marks a conversion by molar mass, not a printed value. Where “and” joins values, the source holds several entries; their conditions need not be identical. Equal entries are not always repeated. Where two headings read alike, the source gives them in different places.

Experiments:
S. pyogenes [1] = type: cell-based; parameters: MIC: unit not given beside the values; settings: for MIC50 / MIC90: Streptococcus pyogenes, Macr-R
M. genitalium = type: cell-based; settings: M. genitalium (5 isolates)
U. parvum = assay: MIC testing in 10B broth (colour change); type: cell-based, Ureaplasma parvum; settings: U. parvum (10 isolates)
N. meningitidis = assay: MIC, CLSI broth microdilution, invasive isolates; type: cell-based; settings: for MIC / MIC50 / MIC90: Neisseria meningitidis, 62 N. meningitidis isolates
Protocol: Example. […] Colonization of the nasopharynx (NP) by NM can lead to invasive meningococcal disease. Chemoprophylaxis is used to eradicate NP colonization and prevent transmission to nonimmune contacts. […] 62 isolates (91.9% blood culture) of NM were collected from 29 medical centers in North and South America and Europe (1997-2008). […] Serological identification was performed for serogroups (SGs) B, C, Y and W135.

S. pyogenes [2] = assay: microbe, parasite or virus in culture; type: cell-based; settings: for strains with resistant clones / strains tested: S. pyogenes; for MIC: Streptococcus pyogenes; for days until resistant clones (MIC increase): daily passages, max. 50
[3] = system: intraphagocytic L. pneumophila ATCC 33153 (THP-1); type: cell-based; settings: for Cs, static concentration: intracellular L. pneumophila ATCC 33153
S. pyogenes [4] = assay: mouse systemic infection model (PD50); type: in vivo
S. pyogenes [5] = assay: MIC of the strains of the mouse systemic infection model; type: cell-based; settings: Streptococcus pyogenes
S. pneumoniae [6] = assay: mouse subcutaneous abscess model; type: in vivo; settings: for average log10 CFU/gram of abscess: S. pneumoniae 1629, 10 mg/Kg PO
Protocol: Example. Efficacy was evaluated in several infection models. […] PD50s were determined 24 hr post infection. CEM-101 was further evaluated in a subcutaneous abscess mouse model against S. pneumoniae. CD-1 female mice were infected via SC injection of bacteria mixed with cyclodextran beads. Two hr post infection, mice received a single oral dose of CEM 101 or control agents. At 48 hr post dose, mice were euthanized, abscesses aseptically removed and bacteria enumerated. CFU per abscess was determined and compared to the untreated control. […] 24 hr post treatment, the thighs were processed and CFU/gram of thigh determined.
Example. Mouse Subcutaneous Abscess. Bacteria were prepared from an overnight plate culture by re-suspending in saline and adjusting the suspension to a 0.1 OD at 625 nm of a 1:10 dilution. The adjusted bacterial suspension was mixed 1:2 with cyclodextran beads prepared as per package instructions. The right flanks of the mice were shaven and injected subcutaneously with 0.2 ml of the bacterial inoculum. Two hours post infection mice were treated via oral gavage with either test article or control drug. 48 hours post infection, mice were euthanized, abscesses aseptically removed, homogenized, serially diluted and plated on bacterial growth agar. After overnight incubation, colonies were counted and CFUs/gram of abscess were determined.
Example. The ability of CEM101 to reduce the microbial load in abscess infection model was also assessed against S. pneumoniae isolates.

S. pneumoniae [7] = assay: neutropenic mouse thigh infection; type: in vivo; settings: PO
Protocol: Example. Neutropenic Mouse Thigh Infection. Mice were rendered neutropenic with IP injections of cyclophosamide at day −4 and day −1 of 150 mg/Kg and 100 mg/Kg, respectively. On day 0 mice were infected with approximately 5×10^5 CFU/ml of bacteria in a 0.1 ml volume into the right thigh. At 1.5 hours post infection mice received treatment via oral gavage. One group of infected mice were euthanized and thigh processed for bacterial titers to serve as T=0 controls. Twenty-four hours post treatment, the remaining mice were euthanized, thighs aseptically removed, weighed, homogenized, serially diluted and plated on bacterial growth media. CFUs per gram of thigh were calculated after overnight incubation of bacterial plates. The amount of test article required to achieve 1, 2, and 3 loge reductions from 24 hour control thighs were calculated. Additional studies were performed that fractionated the single treatment dose (Q24) into two (Q12), three (Q8) and four (Q6) equivalent doses to determine the pharmacodynamic nature of this compound. Further analysis includes static dose, EC50, 1 log kill and maximal effect (Emax).

[8] = read-out: Initial MIC, strain 237 Macrolide-R [LA mutation], parent
[9] = read-out: Initial MIC, strain 2011 Macrolide-R [mef(A)], parent
[10] = read-out: Initial MIC, strain 2094 Macrolide-R [erm(A)], parent
[11] = read-out: Initial MIC, strain 2132 Macrolide-S, parent
[12] = read-out: Initial MIC, strain 2368 Macrolide-R [erm(B)], parent
[13] = read-out: MIC of parents of resistant clones, S. pyogenes
[14] = read-out: Parental MICs, S. pyogenes, 5 strains with varying resistotypes
[15] = read-out: Selected Resistance (MIC), strain 237 Macrolide-R [LA mutation], after serial passages in the drug
[16] = read-out: Selected Resistance (MIC), strain 2011 Macrolide-R [mef(A)], after serial passages in the drug
[17] = read-out: Selected Resistance (MIC), strain 2094 Macrolide-R [erm(A)], after serial passages in the drug
[18] = read-out: Selected Resistance (MIC), strain 2132 Macrolide-S, after serial passages in the drug
[19] = strain 237 Macrolide-R [LA mutation], clone selected with CEM-101
[20] = strain 237 Macrolide-R [LA mutation], clone selected with CLN
[21] = strain 2011 Macrolide-R [mef(A)], clone selected with AZI
[22] = strain 2094 Macrolide-R [erm(A)], clone selected with AZI
[23] = strain 2094 Macrolide-R [erm(A)], clone selected with CEM-101
[24] = strain 2094 Macrolide-R [erm(A)], clone selected with CLN
[25] = strain 2094 Macrolide-R [erm(A)], clone selected with CLR
[26] = strain 2094 Macrolide-R [erm(A)], clone selected with TEL
[27] = strain 2132 Macrolide-S, clone selected with AZI
[28] = strain 2368 Macrolide-R [erm(B)], clone selected with CEM-101
[29] = strain 2368 Macrolide-R [erm(B)], clone selected with TEL
[30] = S. pyogenes (macrolide susceptible)

Row | Structure (SMILES) | strains with resistant clones / strains tested (S. pyogenes [2]) | MIC (S. pyogenes [2]; [8]) | MIC (S. pyogenes [2]; [9]) | MIC (S. pyogenes [2]; [10]) | MIC (S. pyogenes [2]; [11]) | MIC (S. pyogenes [2]; [12]) | MIC (S. pyogenes [2]; [13]) | MIC (S. pyogenes [2]; [14]) | MIC (S. pyogenes [2]; [15]) | MIC (S. pyogenes [2]; [16]) | MIC (S. pyogenes [2]; [17]) | MIC (S. pyogenes [2]; [18]) | days until resistant clones (MIC increase) (S. pyogenes [2]) | Retest MIC after 10 Antibioticfree Subcultures (S. pyogenes [2]; [19]) | Retest MIC after 10 Antibioticfree Subcultures (S. pyogenes [2]; [20]) | Retest MIC after 10 Antibioticfree Subcultures (S. pyogenes [2]; [21]) | Retest MIC after 10 Antibioticfree Subcultures (S. pyogenes [2]; [22]) | Retest MIC after 10 Antibioticfree Subcultures (S. pyogenes [2]; [23]) | Retest MIC after 10 Antibioticfree Subcultures (S. pyogenes [2]; [24]) | Retest MIC after 10 Antibioticfree Subcultures (S. pyogenes [2]; [25]) | other results
1 | CC[C@H]1OC(=O)[C@H](C)[C@@H](O[C@H]2C[C@@](C)(OC)[C@@H](O)[C@H](C)O2)[C@H](C)[C@@H](O[C@@H]2O[C@H](C)C[C@H](N(C)C)[C@H]2O)[C@](C)(O)C[C@@H](C)CN(C)[C@H](C)[C@@H](O)[C@]1(C)O [AZI, azithromycin] | 3/4 | 4 µg/mL (≈ 5.34 µM) | 4 µg/mL (≈ 5.34 µM) | 4 µg/mL (≈ 5.34 µM) | 0.06 µg/mL (≈ 0.0801 µM) | > 64 µg/mL | 0.06 to 4 µg/mL | 0.06 to 4 µg/mL (≈ 0.0801 to 5.34 µM) | 8 µg/mL (≈ 10.7 µM) | 32 µg/mL (≈ 42.7 µM) | > 64 µg/mL | 1 µg/mL (≈ 1.34 µM) | 5 to 35 days | 4 µg/mL | 8 µg/mL | 16 µg/mL | >64 µg/mL | 4 µg/mL | 16 µg/mL | >64 µg/mL | MIC (S. pyogenes [1]; MAC-R S. pyogenes 3029): (>64); MIC50 (S. pyogenes [1]; S. pyogenes TEL R, 10 strains): > 32 µg/mL; MIC90 (S. pyogenes [1]; S. pyogenes TEL R, 10 strains): > 32 µg/mL; MIC50 (S. pyogenes [1]; S. pyogenes TEL S, 30 strains): > 32 µg/mL; MIC90 (S. pyogenes [1]; S. pyogenes TEL S, 30 strains): > 32 µg/mL; MIC Range (M. genitalium): ≦0.000032-0.005 μg/mL; MIC Range (U. parvum): 0.5 to 4 µg/mL; MIC50 (U. parvum; Ureaplasma parvum, read-out: MIC50): 2 µg/mL (≈ 2.67 µM); MIC90 (U. parvum; Ureaplasma parvum, read-out: MIC90): 4 µg/mL (≈ 5.34 µM); % Susc. (N. meningitidis; CLSI (M100-S19, 2009) criteria): 100.0%; MIC (N. meningitidis): 0.015 to 0.12 µg/mL (≈ 0.02 to 0.16 µM); MIC50 (N. meningitidis): 0.06 µg/mL (≈ 0.0801 µM); MIC90 (N. meningitidis): 0.12 µg/mL (≈ 0.16 µM); Retest MIC after 10 Antibioticfree Subcultures (S. pyogenes [2]; [26]): >64 µg/mL; Retest MIC after 10 Antibioticfree Subcultures (S. pyogenes [2]; [27]): 1 µg/mL; Retest MIC after 10 Antibioticfree Subcultures (S. pyogenes [2]; [28]): >64 µg/mL; Retest MIC after 10 Antibioticfree Subcultures (S. pyogenes [2]; [29]): >64 µg/mL; Cs ([3]; L. pneumophila ATCC 33153, 48 h): 181 ×MIC; Cs, static concentration [3]: 2.90 mg/L
2 | CCC[C@@H]1C[C@@H](C(=O)N[C@@H]([C@H]2O[C@H](SC)[C@H](O)[C@@H](O)[C@H]2O)[C@H](C)Cl)N(C)C1 [CLN, clindamycin] | 2/3 and 2/4 | 0.06 µg/mL (≈ 0.141 µM) | 0.06 µg/mL (≈ 0.141 µM) | 0.06 µg/mL (≈ 0.141 µM) | 0.06 µg/mL (≈ 0.141 µM) | > 64 µg/mL | 0.06 µg/mL | 0.06 µg/mL (≈ 0.141 µM) | 0.5 µg/mL (≈ 1.18 µM) | 0.06 µg/mL (≈ 0.141 µM) | > 64 µg/mL | 0.06 µg/mL (≈ 0.141 µM) | 34 to 43 days | 0.03 µg/mL | 1 µg/mL | 0.06 µg/mL | 0.06 µg/mL | 0.06 µg/mL | >64 µg/mL | 0.06 µg/mL | Retest MIC after 10 Antibioticfree Subcultures (S. pyogenes [2]; [26]): >64 µg/mL; Retest MIC after 10 Antibioticfree Subcultures (S. pyogenes [2]; [27]): 0.03 µg/mL; Retest MIC after 10 Antibioticfree Subcultures (S. pyogenes [2]; [28]): >64 µg/mL; Retest MIC after 10 Antibioticfree Subcultures (S. pyogenes [2]; [29]): >64 µg/mL
3 | CC[C@H]1OC(=O)[C@H](C)[C@@H](O[C@H]2C[C@@](C)(OC)[C@@H](O)[C@H](C)O2)[C@H](C)[C@@H](O[C@@H]2O[C@H](C)C[C@H](N(C)C)[C@H]2O)[C@](C)(OC)C[C@@H](C)C(=O)[C@H](C)[C@@H](O)[C@]1(C)O [CLR, clarithromycin] | 1/4 | 0.25 µg/mL (≈ 0.334 µM) | 4 µg/mL (≈ 5.35 µM) | 0.5 µg/mL (≈ 0.668 µM) | 0.03 µg/mL (≈ 0.0401 µM) | > 64 µg/mL | 0.5 µg/mL | 0.03 to 4 µg/mL (≈ 0.0401 to 5.35 µM) | 1 µg/mL (≈ 1.34 µM) | 8 µg/mL (≈ 10.7 µM) | > 64 µg/mL | 0.016 µg/mL (≈ 0.0214 µM) | 6 days | 1 µg/mL | 0.5 µg/mL | 4 µg/mL | 1 µg/mL | 8 µg/mL | 1 µg/mL | >64 µg/mL | MIC (N. meningitidis): 0.015 to 0.25 µg/mL (≈ 0.0201 to 0.334 µM); MIC50 (N. meningitidis): 0.03 µg/mL (≈ 0.0401 µM); MIC90 (N. meningitidis): 0.12 µg/mL (≈ 0.16 µM); MIC (S. pyogenes [2]; read-out: MIC of parent of resistant clone, S. pyogenes): 500 µg/mL; MIC (S. pyogenes [2]; read-out: MIC of resistant clones, S. pyogenes): > 64 µg/mL; Retest MIC after 10 Antibioticfree Subcultures (S. pyogenes [2]; [26]): 8 µg/mL; Retest MIC after 10 Antibioticfree Subcultures (S. pyogenes [2]; [27]): 0.25b μg/ml; Retest MIC after 10 Antibioticfree Subcultures (S. pyogenes [2]; [28]): >64 µg/mL; Retest MIC after 10 Antibioticfree Subcultures (S. pyogenes [2]; [29]): >64 µg/mL; Cs, static concentration [3]: 0.12 mg/L; PD50 (S. pyogenes [4]; S. pyogenes (erythromycin R)): 22.8 mg/kg; PD50 (S. pyogenes [4]; [30]): 24.8 mg/kg; MIC (S. pyogenes [5]; S. pyogenes (erythromycin R)): 1 µg/mL; MIC (S. pyogenes [5]; [30]): 0.015 µg/mL; average log10 CFU/gram of abscess (S. pneumoniae [6]; 24 hours): ~5.5 log10 CFU/gram; average log10 CFU/gram of abscess (S. pneumoniae [6]; 48 hours): ~5.5 log10 CFU/gram; log decrease of CFU from untreated mice (S. pneumoniae [6]; abscess, 10 mg/Kg QD dose): 1.5 log10; Max. change in log10CFUs from 24 hr. controls (S. pneumoniae [7]; S. pneumoniae 1629): −5.75 log10CFUs; Dose for 2 log10 Reduction from 24 hour controls (S. pneumoniae [7]; S. pneumoniae 1629, QD): 9.0 mg/Kg; Max. change in log10CFUs from 24 hr. controls (S. pneumoniae [7]; S. pneumoniae 6303): −5.20 log10CFUs
